Measured values published in patent publication US7943770B2, “Fused quinoline derivative and use thereof” (Takeda Pharmaceutical Company Limited, priority 2004, dated 2011).

Biological target: T1, hNK2 receptor (Homo sapiens, UniProt P21452)
T1 construct: host or cells: CHO cells
T1 sequence (P21452 1-398): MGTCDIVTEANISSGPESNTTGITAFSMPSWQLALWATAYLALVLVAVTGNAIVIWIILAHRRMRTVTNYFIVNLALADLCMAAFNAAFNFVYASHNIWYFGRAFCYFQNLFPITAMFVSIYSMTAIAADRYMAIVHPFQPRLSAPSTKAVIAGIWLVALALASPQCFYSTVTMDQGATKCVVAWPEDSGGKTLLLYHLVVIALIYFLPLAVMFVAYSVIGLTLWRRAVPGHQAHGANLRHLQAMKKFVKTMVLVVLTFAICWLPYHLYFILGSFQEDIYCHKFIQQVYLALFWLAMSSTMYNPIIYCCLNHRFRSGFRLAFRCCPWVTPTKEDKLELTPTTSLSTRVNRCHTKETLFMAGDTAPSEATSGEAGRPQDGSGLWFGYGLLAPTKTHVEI
Assay: Radio-ligand ([125I]-NKA) receptor binding inhibitory activity using membrane fraction of hNK2 receptor-expressing CHO cell
Conditions: membrane fraction of hNK2 receptor-expressing CHO cells, 25° C., 30 min
In short: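 Inhibition of [125I]-NKA binding ([…] solution added) measured after 30 min at 25 °C using hNK2-CHO membrane fraction (20 μg/mL suspension) in pH 7.4 Tris buffer containing MnCl2, BSA and protease inhibitors. Filter-bound counts read; activity calculated as fraction of specific binding, non-specific defined with unlabeled NKA.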

COC[C@@H]1Nc2ccccc2[C@H]2[C@@H]1CCN2C(=O)[C@H]1CCCC[C@H]1NC(=O)c1ccc(C#N)cc1 [Example 216, 4-Cyano-N-((1R,2S)-2-{[(3aR,4R,9bR)-4-(methoxymethyl)-2,3,3a,4,5,9b-hexahydro-1H-pyrrolo[3,2-c]quinolin-1-yl]carbonyl}cyclohexyl)benzamide] was tested, and the IC50 was < 10 nM.
With COC[C@@H]1Nc2ccccc2[C@H]2[C@@H]1CCN2C(=O)[C@H]1CCCC[C@H]1NC(=O)c1ccc2c(c1)nc(C)n2C [Example 276, N-((1R,2S)-2-{[(3aR,4R,9bR)-4-(Methoxymethyl)-2,3,3a,4,5,9b-hexahydro-1H-pyrrolo[3,2-c]quinolin-1-yl]carbonyl}cyclohexyl)-1,2-dimethyl-1H-benzimidazole-5-carboxamide] the IC50 was < 10 nM.
In the case of N#Cc1ccc(NC(=O)N[C@@H]2CCCC[C@@H]2C(=O)N2CC[C@@H]3[C@H](c4ncc[nH]4)Nc4ccccc4[C@@H]32)cc1 [Example 307, N-(4-Cyanophenyl)-N′-((1R,2S)-2-{[(3aR,4R,9bR)-4-(1H-imidazol-2-yl)-2,3,3a,4,5,9b-hexahydro-1H-pyrrolo[3,2-c]quinolin-1-yl]carbonyl}cyclohexyl)urea], the IC50 is reported as < 1 nM.
In the case of COC[C@@H]1Nc2ccccc2[C@H]2[C@@H]1CCN2C(=O)[C@H]1CCCC[C@H]1NC(=O)Nc1ccc(OC)cc1 [Example 206, N-((1R,2S)-2-{[(3aR,4R,9bR)-4-(Methoxymethyl)-2,3,3a,4,5,9b-hexahydro-1H-pyrrolo[3,2-c]quinolin-1-yl]carbonyl}cyclohexyl)-N′-(4-methoxyphenyl)urea], the IC50 is reported as < 1 nM.
O=C(N[C@@H]1CCCC[C@@H]1C(=O)N1CC[C@@H]2[C@H](c3ccccc3)Nc3ccccc3[C@@H]21)c1ccc(C(F)(F)F)cc1 [Example 87, N-((1R,2S)-2-{[(3aR,4R,9bR)-4-Phenyl-2,3,3a,4,5,9b-hexahydro-1H-pyrrolo[3,2-c]quinolin-1-yl]carbonyl}cyclohexyl)-4-(trifluoromethyl)benzamide] was tested, and the IC50 was < 10 nM.
In the case of COC[C@@H]1Nc2ccccc2[C@H]2[C@@H]1CCN2C(=O)[C@H]1CCCC[C@H]1NC(=O)Nc1ccc(-n2cccn2)cc1 [Example 284, N-((1R,2S)-2-{[(3aR,4R,9bR)-4-(methoxymethyl)-2,3,3a,4,5,9b-hexahydro-1H-pyrrolo[3,2-c]quinolin-1-yl]carbonyl}cyclohexyl)-N′-[4-(1H-pyrazol-1-yl)phenyl]urea], the IC50 is reported as < 1 nM.
CCCCCC(=O)N[C@@H]1CCCC[C@@H]1C(=O)N1CC[C@@H]2[C@H](c3ccccc3)Nc3ccccc3[C@@H]21 [Example 93, N-((1R,2S)-2-{[(3aR,4R,9bR)-4-Phenyl-2,3,3a,4,5,9b-hexahydro-1H-pyrrolo[3,2-c]quinolin-1-yl]carbonyl}cyclohexyl)hexanamide] was tested, and the IC50 was < 10 nM.
O=C(N[C@@H]1CCCC[C@@H]1C(=O)N1CC[C@@H]2[C@H](c3cccs3)Nc3ccccc3[C@@H]21)c1ccccc1 (relative stereo) [Example 17, N-((1R,2S)-2-{[(3aR*,4R*,9bR*)-4-(2-Thienyl)-2,3,3a,4,5,9b-hexahydro-1H-pyrrolo[3,2-c]quinolin-1-yl]carbonyl}cyclohexyl)benzamide] was tested, and the IC50 was < 10 nM.
In the case of NC(=O)c1ccc(C(=O)N[C@@H]2CCCC[C@@H]2C(=O)N2CC[C@@H]3[C@H](c4ncc[nH]4)Nc4ccccc4[C@@H]32)cc1 [Example 306, N-((1R,2S)-2-{[(3aR,4R,9bR)-4-(1H-Imidazol-2-yl)-2,3,3a,4,5,9b-hexahydro-1H-pyrrolo[3,2-c]quinolin-1-yl]carbonyl}cyclohexyl)terephthalamide], the IC50 is reported as < 10 nM.
O=C(/C=C/c1cccs1)N[C@@H]1CCCC[C@@H]1C(=O)N1CC[C@@H]2[C@H](c3ncc[nH]3)Nc3ccccc3[C@@H]21 [Example 300, (2E)-N-((1R,2S)-2-{[(3aR,4R,9bR)-4-(1H-Imidazol-2-yl)-2,3,3a,4,5,9b-hexahydro-1H-pyrrolo[3,2-c]quinolin-1-yl]carbonyl}cyclohexyl)-3-thien-2-ylacrylamide] was tested, and the IC50 was < 1 nM.
